In data set [1] the test system is Human immunodeficiency virus 1. Description: Antiviral activity against HIV1 assessed as inhibition of viral replication. The note with it: for IC95: read-out: CIC95. Format: functional, organism-based.
The subject of data set [2] is Human immunodeficiency virus 1. Put plainly: Antiviral activity against laboratory HIV1 strains and primary clinical isolates.
The next data set deals with Protease (Human immunodeficiency virus 1, UniProt Q9YQ12). Description: Inhibition of HIV1 protease.
Sequence of Protease (Q9YQ12 whole entry): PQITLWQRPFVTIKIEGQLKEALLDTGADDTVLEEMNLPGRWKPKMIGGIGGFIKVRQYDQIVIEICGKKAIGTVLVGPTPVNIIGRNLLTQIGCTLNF
Data set [3] is described as follows: Oral bioavailability in HIV1 infected patient at 600 mg administered as single dose. Format: ADME, organism-based. Conditions: human, in vivo.
For data set [4], the target named is Protease (Human immunodeficiency virus 1) (UniProt Q9YQ12).
Sequence of Protease (Human immunodeficiency virus 1) (Q9YQ12 as listed by the source): as the sequence (Q9YQ12 whole entry) above
Data set [5] has as its system Human immunodeficiency virus 1. Put plainly: Antiviral activity against protease inhibitor resistant HIV1 isolates. Format: functional, organism-based.
Another data set deals with Beta-secretase 1 (Homo sapiens, UniProt P56817). Put plainly: Inhibition of recombinant memapsin 2.
Sequence of Beta-secretase 1 (P56817 whole entry): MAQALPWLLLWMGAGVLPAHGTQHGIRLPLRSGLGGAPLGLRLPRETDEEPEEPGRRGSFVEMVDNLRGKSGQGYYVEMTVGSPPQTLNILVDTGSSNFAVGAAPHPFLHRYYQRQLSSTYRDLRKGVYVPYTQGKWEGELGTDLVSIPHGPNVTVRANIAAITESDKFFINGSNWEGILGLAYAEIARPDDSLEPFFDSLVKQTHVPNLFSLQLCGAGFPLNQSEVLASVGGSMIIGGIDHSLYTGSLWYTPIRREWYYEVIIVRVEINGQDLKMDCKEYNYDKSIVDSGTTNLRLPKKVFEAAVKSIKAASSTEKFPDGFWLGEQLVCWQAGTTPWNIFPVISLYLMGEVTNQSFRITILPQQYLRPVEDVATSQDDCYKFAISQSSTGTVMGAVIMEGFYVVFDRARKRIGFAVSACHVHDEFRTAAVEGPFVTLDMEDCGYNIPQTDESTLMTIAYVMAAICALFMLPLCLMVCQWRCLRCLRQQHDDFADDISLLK
The mark [6] stands for this setting: read-out: ID50 (the source's name).

Molecules are shown by their SMILES. *1 amine or outer side, *2 acyl side, *3 side chain or, on linkers, in order; H or OH if unused. Where a SMILES comes first, the peptide text is derived from it. [ ]: non-standard residue; d: D form. LeuΨ(S-CHOHCH2)Ala = CC(C)C[C@H](N[*:1])[C@@H](O)C[C@@H](C)C(=O)[*:2]

On to `CC(C)CN(C[C@@H](O)[C@H](Cc1ccccc1)NC(=O)O[C@H]1CO[C@H]2OCC[C@H]21)S(=O)(=O)c1ccc(N)cc1`, for which the IC50 in data set [1] (read-out: IC50) came out at 4.1 nM. Further, the IC90 (usually the concentration at which the effect reaches the 90% level) in data set [2] was 9 nM. With `COc1ccc(S(=O)(=O)N(CC(C)C)C[C@@H](O)[C@H](Cc2ccccc2)NC(=O)[C@@H]2CCC[C@]3(CCCO3)C2)cc1`, the Ki (as a rule, a dissociation constant, usually derived from enzyme kinetics or from competition with a known ligand) on Protease came out at 2.9 nM.

For the compound `COc1ccc(S(=O)(=O)N(CC(C)C)C[C@@H](O)[C@H](Cc2ccccc2)NC(=O)O[C@@H]2CCOCOC2)cc1`, the IC50 on Protease was 5 nM. With `CC(C)(C)NC(=O)[C@@H]1C[C@@H]2CCCC[C@@H]2CN1C[C@@H](O)[C@H](Cc1ccccc1)NC(=O)O[C@H]1CO[C@H]2OCC[C@H]21`, in data set [1], the IC95 stood at 46 nM. Turning to `CC(C)(C)NC(=O)[C@@H]1C[C@@H]2CCCC[C@@H]2CN1C[C@@H](O)[C@H](Cc1ccccc1)NC(=O)O[C@H]1CCOC1`, the IC95 in data set [1] was 800 nM. Besides, the IC50 on Protease stood at 160 nM.

Consider `COc1ccc(S(=O)(=O)N(CC(C)C)C[C@@H](O)[C@H](Cc2ccccc2)NC(=O)O[C@H]2COC3OCCC[C@@H]32)cc1` (single isomer, unassigned), for which the IC50 in data set [1] (setting [6]) worked out at 4.5 nM. On Protease, this compound showed an inhibition constant (Ki) of 2.2 nM. The like results for `COc1ccc(S(=O)(=O)N(CC(C)C)C[C@@H](O)[C@H](Cc2ccccc2)NC(=O)[C@@H]2CCO[C@]3(CCCO3)C2)cc1` were, in that order, 1200 nM and 3.9 nM. Turning to `CC(C)(C)NC(=O)[C@@H]1C[C@@H]2CCCC[C@@H]2CN1C[C@@H](O)[C@H](Cc1ccccc1)NC(=O)[C@H](CC(N)=O)NC(=O)c1ccc2ccccc2n1`, the IC50 in data set [1] (setting [6]) was found to be 18 nM. As for `COc1ccc(S(=O)(=O)N(CC(C)C)C[C@@H](O)[C@H](Cc2ccccc2)NC(=O)O[C@H]2CCS(=O)(=O)C2)cc1`, the IC50 in data set [1] (setting [6]) is 19 nM. This compound had a Ki on Protease of 1.4 nM. With `O=C(N[C@@H](Cc1ccccc1)[C@@H](O)C[C@@H](Cc1ccccc1)C(=O)N[C@H]1c2ccccc2C[C@H]1O)O[C@H]1CCOC1`, the IC95 in data set [1] was found to be 3 nM. The compound further yielded an IC50 against Protease of under 0.03 nM. Take `CC(C)c1nc(CN(C)C(=O)N[C@H](C(=O)N[C@@H](Cc2ccccc2)C[C@H](O)[C@H](Cc2ccccc2)NC(=O)OCc2cncs2)C(C)C)cs1` [RITONAVIR]: in data set [3], the bioavailability (in general, the share of a dose that reaches the circulation, judged against a reference dose that is usually intravenous) is 37%. In data set [4], `CC(C)CN(C[C@@H](O)[C@H](Cc1ccccc1)NC(=O)O[C@H]1CCOC1)S(=O)(=O)c1ccc(N)cc1` gave an IC90 of 40 nM. This compound also had a Ki at Protease of 0.6 nM.

As to `COc1ccc(S(=O)(=O)N(CC(C)C)C[C@@H](O)[C@H](Cc2ccccc2)NC(=O)O[C@H]2CC[C@H]3OCO[C@@H]23)cc1`, at Protease, the IC50 is 3.8 nM and the Ki stood at 0.11 nM. `COc1ccc(S(=O)(=O)N(CC(C)C)C[C@@H](O)[C@H](Cc2ccccc2)NC(=O)O[C@H]2CC[C@]3(CCCO3)C2)cc1`: the IC50 in data set [1] (setting [6]) is 265 nM. Moreover, the Ki at Protease was 3.7 nM.

At Protease, `COc1ccc(S(=O)(=O)N(C[C@@H]2CCC(=O)N2)C[C@@H](O)[C@H](Cc2ccccc2)NC(=O)O[C@H]2CC[C@H]3OCC[C@@H]23)cc1` came in with an IC50 of 28 nM and a Ki of 0.16 nM. On to `COc1ccc(S(=O)(=O)N(CC(C)C)C[C@@H](O)[C@H](Cc2ccccc2)NC(=O)O[C@H]2CO[C@H]3OCC[C@H]32)cc1`, for which the IC50 in data set [5] was determined as 0.5 nM.

With `CC(C)CN(C[C@@H](O)[C@H](Cc1ccccc1)NC(=O)O[C@H]1CO[C@H]2OCC[C@H]21)S(=O)(=O)c1ccc2c(c1)OCO2`, the IC50 in data set [1] (read-out: IC50) is 1.4 nM. Consider `CSCC[C@H](NC(=O)[C@@H](NC(=O)OC(C)(C)C)C(C)C)C(=O)N[C@@H](CC(C)C)[C@@H](O)C[C@@H](C)C(=O)N[C@H](C(=O)NCC(C)C)C(C)C`, for which the Ki at Beta-secretase 1 turned out to be 0.8 nM. For the compound `CC(C)(C)NC(=O)[C@@H]1C[C@@H]2CCCC[C@@H]2CN1C[C@@H](O)[C@H](Cc1ccccc1)NC(=O)[C@@H](NC(=O)c1ccc2ccccc2n1)[C@H]1CCOC1`, the IC95 in data set [1] was determined as 8 nM. The IC50 against Protease stood at 0.05 nM. Regarding `COc1ccc(S(=O)(=O)N(CC(C)C)C[C@@H](O)[C@H](Cc2ccccc2)NC(=O)O[C@H]2CO[C@@H]3OCC[C@@H]32)cc1`, in data set [1] (read-out: IC50), the IC50 is 4.1 nM. For the compound `CC(C)C[C@H](NC(=O)[C@H](CC(N)=O)NC(=O)[C@@H](N)C(C)C)[C@@H](O)C[C@@H](C)C(=O)N[C@@H](C)C(=O)N[C@@H](CCC(=O)O)C(=O)N[C@@H](Cc1ccccc1)C(=O)O` (H-VN[LeuΨ(S-CHOHCH2)Ala]AEF-OH), the Ki on Beta-secretase 1 turned out to be 6.8 nM. As to `CC(C)(C)NC(=O)[C@@H]1C[C@@H]2CCCC[C@@H]2CN1C[C@@H](O)[C@H](Cc1ccccc1)NC(=O)O[C@H]1CC[C@H]2OCC[C@@H]12`, the IC50 at Protease worked out at 17 nM. Take `COc1ccc(S(=O)(=O)N(CC(C)C)C[C@@H](O)[C@H](Cc2ccccc2)NC(=O)[C@@H]2CCCS(=O)(=O)C2)cc1`: the IC50 in data set [1] (setting [6]) turned out to be 17 nM. Besides, the affinity at Protease corresponds to a Ki of 1.4 nM. For `O=C(N[C@@H](Cc1ccccc1)[C@@H](O)C[C@@H](Cc1ccccc1)C(=O)N[C@H]1c2ccccc2C[C@H]1O)OC1CCCC1`, the IC95 in data set [1] was 400 nM. The same compound came in with an IC50 on Protease of 0.3 nM. `CC(C)(C)NC(=O)[C@@H]1C[C@@H]2CCCC[C@@H]2CN1C[C@@H](O)[C@H](Cc1ccccc1)NC(=O)O[C@H]1CCS(=O)(=O)C1`: the IC95 in data set [1] was determined as 350 nM. For the same compound, at Protease, the IC50 came out at 76 nM.

These data come from ChEMBL document CHEMBL1153435, “Harnessing nature's insight: design of aspartyl protease inhibitors from treatment of drug-resistant HIV to Alzheimer's disease” (J Med Chem, 2009).
